Laboratory results published in patent EP2326328B1, “USE OF DIHYDRALAZINE FOR THE TREATMENT OF DISEASES RELATED TO ELEVATED SEMICARBAZIDE SENSITIVE AMINE-OXIDASE (SSAO) ACTIVITY” (Semmelweis Egyetem, priority 2008, dated 2010).
Where “and” joins values, the source holds several entries; their conditions need not be identical. Equal values may be shown once. Read-outs that look alike come from different tables or passages of the source.

Molecular target: T1, SSAO (Rattus norvegicus, UniProt O08590)
T1 construct: from tissue; host or cells: rat serum (blood supernatant) of treated animals
T1 sequence (O08590 28-763 limits assumed): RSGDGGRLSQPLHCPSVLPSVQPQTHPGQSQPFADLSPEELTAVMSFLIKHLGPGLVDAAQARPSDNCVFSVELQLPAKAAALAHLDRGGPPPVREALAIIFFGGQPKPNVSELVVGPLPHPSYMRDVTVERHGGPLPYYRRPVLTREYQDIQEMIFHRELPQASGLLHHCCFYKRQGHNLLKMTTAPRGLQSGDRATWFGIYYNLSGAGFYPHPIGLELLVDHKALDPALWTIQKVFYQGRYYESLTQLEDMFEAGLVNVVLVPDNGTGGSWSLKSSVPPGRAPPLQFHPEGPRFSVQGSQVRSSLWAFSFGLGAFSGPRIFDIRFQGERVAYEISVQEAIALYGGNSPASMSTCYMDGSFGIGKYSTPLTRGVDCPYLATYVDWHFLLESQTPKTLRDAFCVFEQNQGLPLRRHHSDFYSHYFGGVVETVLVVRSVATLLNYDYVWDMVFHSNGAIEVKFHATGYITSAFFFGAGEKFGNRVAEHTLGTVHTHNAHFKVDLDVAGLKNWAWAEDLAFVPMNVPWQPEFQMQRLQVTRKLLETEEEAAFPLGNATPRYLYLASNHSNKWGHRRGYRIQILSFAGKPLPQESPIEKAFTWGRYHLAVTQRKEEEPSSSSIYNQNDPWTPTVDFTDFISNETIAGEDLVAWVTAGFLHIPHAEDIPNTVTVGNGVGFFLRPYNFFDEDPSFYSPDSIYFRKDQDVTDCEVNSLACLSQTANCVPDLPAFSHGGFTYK
Test: serum SSAO activity in vivo in rats after sc treatment
Settings: for Specific activity (pmol/mg/h) Mean / Inhibition (%) / Specific activity / inhibition at 10 µmol/kg / inhibition at 100 µmol/kg: rat serum SSAO; for Specific activity (pmol/mg/h) Mean / Specific activity: control mean 3.373; for inhibition at 10 µmol/kg / inhibition at 100 µmol/kg: rat, sc
Method: Rats were treated sc with 0.1 or 0.01 M dihydralazine solution (0.1 ml/100 g) once daily for 1-5 days. On the appropriate day, 2 hours after the treatment the rats were decapitated and their blood was collected without anticoagulant in plastic centrifuge tubes. Blood samples were centrifuged at a low frequency (800 rpm/min) and the supernatant was used for the determination of SSAO activity applying ^14C-benzylamine substrate.
SSAO inhibition expressed in pmol/mg protein/hour units and in % values (mean ± S.D.) in the two treated groups is shown in table 2 and 3.

[1] = sc 10 µmol/kg (1.9 mg/kg) once daily, 24 h, individual animals
[2] = sc 10 µmol/kg (1.9 mg/kg) once daily, 48 h, individual animals
[3] = sc 10 µmol/kg (1.9 mg/kg) once daily, 72 h, individual animals
[4] = sc 10 µmol/kg (1.9 mg/kg) once daily, 96 h, individual animals
[5] = sc 10 µmol/kg (1.9 mg/kg) once daily, 120 h, individual animals
[6] = sc 100 µmol/kg (19 mg/kg) once daily, 24 h, individual animals
[7] = sc 100 µmol/kg (19 mg/kg) once daily, 48 h, individual animals
[8] = sc 100 µmol/kg (19 mg/kg) once daily, 72 h, individual animals
[9] = sc 100 µmol/kg (19 mg/kg) once daily, 96 h, individual animals
[10] = sc 100 µmol/kg (19 mg/kg) once daily, 120 h, individual animals

## NNc1nnc(NN)c2ccccc12 [dihydralazine]
Animal experiments, low dose without appreciable blood pressure lowering effect
  SSAO inhibition: significant SSAO inhibition
Sc 10 µmol/kg (1.9 mg/kg) once daily, 24 h, group mean
  Specific activity (pmol/mg/h) Mean: 1.580 pmol/mg/h
[1]
  Inhibition (%): 37% and 57%
  Specific activity: 2.11 pmol/mg/h and 1.19 pmol/mg/h and 1.44 pmol/mg/h
Sc 10 µmol/kg (1.9 mg/kg) once daily, 48 h, group mean
  Specific activity (pmol/mg/h) Mean: 1.595 pmol/mg/h
[2]
  Inhibition (%): 52% and 55%
  Specific activity: 1.66 pmol/mg/h and 1.61 pmol/mg/h and 1.52 pmol/mg/h
Sc 10 µmol/kg (1.9 mg/kg) once daily, 72 h, group mean
  Specific activity (pmol/mg/h) Mean: 1.244 pmol/mg/h
[3]
  Inhibition (%): 69%
  Specific activity: 1.25 pmol/mg/h and 1.06 pmol/mg/h and 1.43 pmol/mg/h
Sc 10 µmol/kg (1.9 mg/kg) once daily, 96 h, group mean
  Specific activity (pmol/mg/h) Mean: 1.344 pmol/mg/h
[4]
  Inhibition (%): 71% and 42%
  Specific activity: 0.97 pmol/mg/h and 1.94 pmol/mg/h and 1.12 pmol/mg/h
Sc 10 µmol/kg (1.9 mg/kg) once daily, 120 h, group mean
  Specific activity (pmol/mg/h) Mean: 1.425 pmol/mg/h
[5]
  Inhibition (%): 77% and 14% and 82%
  Specific activity: 0.78 pmol/mg/h and 2.90 pmol/mg/h and 0.59 pmol/mg/h
Sc 100 µmol/kg (19 mg/kg) once daily, 24 h, group mean
  Specific activity (pmol/mg/h) Mean: 1.094 pmol/mg/h
[6]
  Inhibition (%): 69%
  Specific activity: 1.13 pmol/mg/h and 1.05 pmol/mg/h and 1.11 pmol/mg/h
Sc 100 µmol/kg (19 mg/kg) once daily, 48 h, group mean
  Specific activity (pmol/mg/h) Mean: 1.481 pmol/mg/h
[7]
  Inhibition (%): 47% and 61%
  Specific activity: 1.33 pmol/mg/h and 1.80 pmol/mg/h and 1.31 pmol/mg/h
Sc 100 µmol/kg (19 mg/kg) once daily, 72 h, group mean
  Specific activity (pmol/mg/h) Mean: 1.177 pmol/mg/h
[8]
  Inhibition (%): 66%
  Specific activity: 1.11 pmol/mg/h and 1.26 pmol/mg/h and 1.15 pmol/mg/h
Sc 100 µmol/kg (19 mg/kg) once daily, 96 h, group mean
  Specific activity (pmol/mg/h) Mean: 0.859 pmol/mg/h
[9]
  Inhibition (%): 73%
  Specific activity: 0.55 pmol/mg/h and 1.12 pmol/mg/h and 0.91 pmol/mg/h
Sc 100 µmol/kg (19 mg/kg) once daily, 120 h, group mean
  Specific activity (pmol/mg/h) Mean: 0.730 pmol/mg/h
[10]
  Inhibition (%): 62% and 90% and 83%
  Specific activity: 1.29 pmol/mg/h and 0.34 pmol/mg/h and 0.56 pmol/mg/h
Sc 10 µmol/kg (1.9 mg/kg) once daily, 24 h, group mean, read-out: Inhibition (%) Mean
  inhibition at 10 µmol/kg: 53%
Sc 10 µmol/kg (1.9 mg/kg) once daily, 48 h, group mean, read-out: Inhibition (%) Mean
  inhibition at 10 µmol/kg: 53%
Sc 10 µmol/kg (1.9 mg/kg) once daily, 48 h, individual animals, read-out: Inhibition (%)
  inhibition at 10 µmol/kg: 51%
Sc 10 µmol/kg (1.9 mg/kg) once daily, 72 h, group mean, read-out: Inhibition (%) Mean
  inhibition at 10 µmol/kg: 63%
Sc 10 µmol/kg (1.9 mg/kg) once daily, 72 h, individual animals, read-out: Inhibition (%)
  inhibition at 10 µmol/kg: 63%
Sc 10 µmol/kg (1.9 mg/kg) once daily, 96 h, group mean, read-out: Inhibition (%) Mean
  inhibition at 10 µmol/kg: 60%
Sc 10 µmol/kg (1.9 mg/kg) once daily, 120 h, group mean, read-out: Inhibition (%) Mean
  inhibition at 10 µmol/kg: 58%
Sc 100 µmol/kg (19 mg/kg) once daily, 24 h, group mean, read-out: Inhibition (%) Mean
  inhibition at 100 µmol/kg: 68%
Sc 100 µmol/kg (19 mg/kg) once daily, 24 h, individual animals, read-out: Inhibition (%)
  inhibition at 100 µmol/kg: 67%
Sc 100 µmol/kg (19 mg/kg) once daily, 48 h, group mean, read-out: Inhibition (%) Mean
  inhibition at 100 µmol/kg: 56%
Sc 100 µmol/kg (19 mg/kg) once daily, 48 h, individual animals, read-out: Inhibition (%)
  inhibition at 100 µmol/kg: 60%
Sc 100 µmol/kg (19 mg/kg) once daily, 72 h, group mean, read-out: Inhibition (%) Mean
  inhibition at 100 µmol/kg: 65%
Sc 100 µmol/kg (19 mg/kg) once daily, 72 h, individual animals, read-out: Inhibition (%)
  inhibition at 100 µmol/kg: 67%
Sc 100 µmol/kg (19 mg/kg) once daily, 96 h, group mean, read-out: Inhibition (%) Mean
  inhibition at 100 µmol/kg: 75%
Sc 100 µmol/kg (19 mg/kg) once daily, 96 h, individual animals, read-out: Inhibition (%)
  inhibition at 100 µmol/kg: 84%
Sc 100 µmol/kg (19 mg/kg) once daily, 120 h, group mean, read-out: Inhibition (%) Mean
  inhibition at 100 µmol/kg: 78%
